Among the data in US20220144812A1, “QUINOLINE DERIVATIVES AND THEIR USE FOR THE TREATMENT OF CANCER” (Epizyme, Inc., priority 2019, published 2022) are IC50 values, retold here.

One test relates to 647V cells. Put plainly: High throughput proliferation (HTP) assay. The format is cell-based. The note with it: Homo sapiens, 647-V, high throughput proliferation; read-out: CREBBP HTP IC50. A digest of the protocol:
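Exponentially growing 647V cells in DMEM with 15% FBS were treated in triplicate with increasing compound concentrations at 37° C, 5% CO2. Viable cell number was read by CellTiter-Glo luminescence on day 7; IC50 in micromolar.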

The target of another test is T1, CREBBP (1084-1701) (Homo sapiens, UniProt Q92793).
T1 construct: measured in the following biochemical assay using CREBBP (1084-1701); purchased
T1 sequence (Q92793 1084-1701): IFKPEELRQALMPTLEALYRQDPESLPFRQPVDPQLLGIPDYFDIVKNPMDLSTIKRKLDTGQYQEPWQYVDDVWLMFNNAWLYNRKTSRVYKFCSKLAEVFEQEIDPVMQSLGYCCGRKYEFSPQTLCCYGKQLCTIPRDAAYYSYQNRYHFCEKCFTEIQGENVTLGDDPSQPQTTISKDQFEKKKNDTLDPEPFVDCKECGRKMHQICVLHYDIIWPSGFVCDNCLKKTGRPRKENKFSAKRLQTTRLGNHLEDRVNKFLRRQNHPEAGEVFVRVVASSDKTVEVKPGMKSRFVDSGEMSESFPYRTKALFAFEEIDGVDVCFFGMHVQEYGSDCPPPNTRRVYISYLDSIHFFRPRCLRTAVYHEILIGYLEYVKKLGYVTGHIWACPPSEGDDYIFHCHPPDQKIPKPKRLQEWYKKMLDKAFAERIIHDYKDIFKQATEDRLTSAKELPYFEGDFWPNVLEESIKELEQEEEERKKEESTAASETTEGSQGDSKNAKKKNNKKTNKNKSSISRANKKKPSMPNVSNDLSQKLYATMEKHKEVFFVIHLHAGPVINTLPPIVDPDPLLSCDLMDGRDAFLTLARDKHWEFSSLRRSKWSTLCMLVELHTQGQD
Put plainly: Biochemical assay for CREBBP (1084-1701), SAMDI. The conditions noted are these: SAMDI, read-out: CREBBP Biochemistry IC50. The method in brief:
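CREBBP (1084-1701) preincubated with compound 30 min at RT, then substrate mix (biotin-H3 11-25 K14R/K23R peptide, acetyl-CoA) added for 30 min at RT. Reaction stopped with formic acid, neutralised with sodium bicarbonate. Peptide acetylation read by SAMDI mass spectrometry to derive IC50.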

The next test deals with 639V bladder cell line. Put plainly: 7-day proliferation assay, 639V. Format: cell-based. The note with it: Homo sapiens, 168 h, 7 days, CellTiter-Glo. As to the method:
(§1) This example describes methods and materials for 7-day proliferation assay.
(§2) A total of 22 bladder cell lines were used (see table below). Cell lines were cultured in recommended growth media according to supplier.
(§3) Cells were in culture media at a density optimized for a 7-day culture in a final volume of 150 μL per well in white opaque 96-well plates. Cells were allowed to adhere for several hours (4-6 h) then compounds were added with HPD300 Digital Dispenser and placed into the incubator at 37° C., 5% CO2 for 7 days. After 7 days incubation, 100 μL of CellTiter-Glo® Luminescent Cell Viability Assay (Promega-G7573) reagents were added per well. After 20 minutes incubation luminescence was measured in plate reader. IC50 were calculated from a non-linear logarithmic growth curve.
(§4) IC50 values (nanomolar (nM)) are summarized in the table below, which depicts the inhibitory effect of certain compounds in bladder cell lines.
In general terms: Cellular ATP, detected with luciferase, serves as a proxy for viable cell number.

For another test, the system named is VMCUB1 bladder cell line. Put plainly: 7-day proliferation assay, VMCUB1. The format is cell-based. The conditions noted are these: Homo sapiens, VM-CUB-1, 168 h; VMCUB1, 7 days, CellTiter-Glo. As to the method:
as §1, §2, §3, §4

A further test relates to 647V bladder cell line. Put plainly: 7-day proliferation assay, 647V. Format: cell-based. The note with it: Homo sapiens, 168 h, 7 days, CellTiter-Glo. As for the experimental part: as §1, §2, §3, §4
A further test relates to 5637 bladder cell line. Put plainly: 7-day proliferation assay, 5637. The format is cell-based. The note with it: 168 h; 5637, 7 days, CellTiter-Glo. As to the method:
as §1, §2, §3, §4

The next test concerns BC3C bladder cell line. Put plainly: 7-day proliferation assay, BC3C. The format is cell-based. The conditions noted are these: 168 h, 7 days, CellTiter-Glo. As for the experimental part: as §1, §2, §3, §4
For test [1], the system named is BFTC905 bladder cell line. The experiment in a line: 7-day proliferation assay, BFTC905. The note with it: Homo sapiens, BFTC-905, 168 h; BFTC905, 7 days, CellTiter-Glo. Format: cell-based. As to the method:
as §1, §2, §3, §4

The subject of another test is CAL29 bladder cell line. The experiment in a line: 7-day proliferation assay, CAL29. The format is cell-based. The note with it: 168 h; CAL29, 7 days, CellTiter-Glo. As to the method: as §1, §2, §3, §4
In the next test the test system is HT1197 bladder cell line. Put plainly: 7-day proliferation assay, HT1197. Format: cell-based. The conditions noted are these: Homo sapiens, 168 h; HT1197, 7 days, CellTiter-Glo. As to the method:
as §1, §2, §3, §4

The test system of a further test is JMSU1 bladder cell line. Put plainly: 7-day proliferation assay, JMSU1. The note with it: JMSU-1, 168 h; JMSU1, 7 days, CellTiter-Glo. Format: cell-based. As for the experimental part:
as §1, §2, §3, §4

Another test concerns KMBC2 bladder cell line. The experiment in a line: 7-day proliferation assay, KMBC2. Format: cell-based. The conditions noted are these: 168 h; KMBC2, 7 days, CellTiter-Glo. As for the experimental part: as §1, §2, §3, §4
For a further test, the system named is RT112 bladder cell line. Put plainly: 7-day proliferation assay, RT112. Format: cell-based. The note with it: Homo sapiens, RT-112, 168 h; RT112, 7 days, CellTiter-Glo. As for the experimental part: as §1, §2, §3, §4
A further test has as its system RT4 bladder cell line. The experiment in a line: 7-day proliferation assay, RT4. Format: cell-based. The note with it: 168 h; RT4, 7 days, CellTiter-Glo. As for the experimental part:
as §1, §2, §3, §4

Another test has as its system SW1710 bladder cell line. The experiment in a line: 7-day proliferation assay, SW1710. The format is cell-based. The conditions noted are these: Homo sapiens, 168 h; SW1710, 7 days, CellTiter-Glo. As for the experimental part: as §1, §2, §3, §4
The subject of the next test is TCCSUP bladder cell line. The experiment in a line: 7-day proliferation assay, TCCSUP. The note with it: Homo sapiens, TCC-SUP, 168 h, 7 days, CellTiter-Glo. The format is cell-based. As to the method: as §1, §2, §3, §4
In a further test the test system is UBLC1 bladder cell line. The experiment in a line: 7-day proliferation assay, UBLC1. Format: cell-based. The note with it: 168 h; UBLC1, 7 days, CellTiter-Glo. As for the experimental part:
as §1, §2, §3, §4

In the next test the test system is CLS439 bladder cell line. The experiment in a line: 7-day proliferation assay, CLS439. The format is cell-based. The note with it: 168 h; CLS439, 7 days, CellTiter-Glo. As for the experimental part:
as §1, §2, §3, §4

SMILES strings stand for the structures.

By IC50 is commonly meant the concentration that gives 50% inhibition. Regarding `CCn1ncc(CN(C)C(=O)c2cc(-c3ccc(NCCNC)c(C)n3)nc3ccc(Cl)cc23)c1C` [Compound 3, 6-chloro-N-[(1-ethyl-5-methyl-1H-pyrazol-4-yl)methyl]-N-methyl-2-(6-methyl-5-{[2-(methylamino)ethyl]amino}pyridin-2-yl)quinoline-4-carboxamide], the 50% inhibitory concentration (IC50) was 27 nM in the test with 647V cells; 21 nM at CREBBP (1084-1701); 40 nM in the test with 639V bladder cell line; 69 nM in the test on VMCUB1 bladder cell line; 127 nM in the test with 647V bladder cell line; 133 nM in the test with 5637 bladder cell line. For the same molecule, the concentration for half-maximal inhibition (IC50) was 5100 nM in the test with BC3C bladder cell line; 122 nM in test [1]; 1990 nM with CAL29 bladder cell line; 154 nM in the test on HT1197 bladder cell line; 378 nM in the test with JMSU1 bladder cell line; 7640 nM in the test on KMBC2 bladder cell line. The IC50 in the test on RT112 bladder cell line was found to be 111 nM; in the test on RT4 bladder cell line, 158 nM; in the test with SW1710 bladder cell line it was 290 nM; in the test with TCCSUP bladder cell line it was 7600 nM; with UBLC1 bladder cell line, 141 nM; in the test on CLS439 bladder cell line, 619 nM.
For the molecule `CCn1ncc(CN(C)C(=O)c2cc(-c3ccc(NC4CN(C)C4)c(C)n3)nc3ccc(Cl)cc23)c1C` [Compound 480], the 50% inhibitory concentration (IC50) was 19.5 nM in the test with 647V cells; 17.1 nM on CREBBP (1084-1701); 57 nM in the test with 639V bladder cell line; 116 nM with VMCUB1 bladder cell line; 52 nM in the test on 647V bladder cell line; 147 nM in the test on 5637 bladder cell line. Also, the IC50 in the test on BC3C bladder cell line is 10000 nM; in test [1], 110 nM; with CAL29 bladder cell line, 524 nM; in the test on HT1197 bladder cell line, 112 nM; with JMSU1 bladder cell line, 546 nM; with KMBC2 bladder cell line it was 1810 nM. Also, the half-maximal inhibitory concentration (IC50) is 198 nM in the test with RT112 bladder cell line; 174 nM in the test with RT4 bladder cell line; 184 nM in the test with SW1710 bladder cell line; 10000 nM with TCCSUP bladder cell line; 234 nM in the test with UBLC1 bladder cell line; 480 nM in the test with CLS439 bladder cell line.
With `CCc1noc(CN(C)C(=O)c2cc(-c3ccc(NCCNC)c(C)n3)nc3ccc(Cl)cc23)c1C` [Compound 537], the IC50 in the test with 647V cells was 50.4 nM; at CREBBP (1084-1701) it was 32.8 nM; in the test on 639V bladder cell line, 99.5 nM; in the test on VMCUB1 bladder cell line, 116 nM; with 647V bladder cell line it was 125 nM; in the test on 5637 bladder cell line it was 197 nM. Moreover, the IC50 is 4060 nM in the test with BC3C bladder cell line; 224 nM in test [1]; 704 nM in the test with CAL29 bladder cell line; 346 nM in the test on HT1197 bladder cell line; 748 nM with JMSU1 bladder cell line; 1600 nM with KMBC2 bladder cell line. Besides, the IC50 was determined as 370 nM in the test with RT112 bladder cell line; 344 nM with RT4 bladder cell line; 190 nM in the test with SW1710 bladder cell line; 10000 nM with TCCSUP bladder cell line; 494 nM with UBLC1 bladder cell line; 849 nM in the test with CLS439 bladder cell line.
For `CCc1ncc(CN(C)C(=O)c2cc(-c3ccc(NCCN(C)C)c(C)n3)nc3ccc(Cl)cc23)n1C` [Compound 577], the IC50 turned out to be 31.2 nM in the test with 647V cells; 42.9 nM on CREBBP (1084-1701); 100 nM with 639V bladder cell line; 51 nM in the test on VMCUB1 bladder cell line; 53.5 nM with 647V bladder cell line; 111 nM in the test on 5637 bladder cell line. The half-maximal inhibitory concentration (IC50) is 1190 nM with BC3C bladder cell line; 132 nM in test [1]; 1200 nM with CAL29 bladder cell line; 234 nM in the test on HT1197 bladder cell line; 997 nM with JMSU1 bladder cell line; 896 nM in the test on KMBC2 bladder cell line. Besides, the IC50 is 78 nM in the test on RT112 bladder cell line; 199 nM in the test on RT4 bladder cell line; 143 nM in the test on SW1710 bladder cell line; 10000 nM in the test on TCCSUP bladder cell line; 427 nM in the test on UBLC1 bladder cell line; 461 nM with CLS439 bladder cell line.
